Assay [1] concerns HCT116, a colorectal carcinoma cell line. The experiment in a line: Tetrazolium dye (MTT) proliferation assay. The assay is classed as cell-based. The following applies: Homo sapiens, HCT-116; HCT116 cells, inhibition of cell proliferation. The procedure, abridged: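 Cells in McCoy's 5A with 10% FCS, seeded for log growth, dosed next day in duplicate (0.3% DMSO final) and incubated to time points set by growth curves at 37° C. MTT at 1 mg/ml for 2.5–3 h, formazan in ethanol, A570 minus 650 nm reference. IC50 by linear regression of log concentration versus % inhibition.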

In assay [2] the target is human cyclin D1-CDK4 (Homo sapiens, UniProt P11802). The experiment in a line: FlashPlate kinase assay, cyclin D1-CDK4. The assay is classed as biochemical. As to conditions: Rb protein substrate, 1 μM ATP, 33P-ATP, 30 minutes room temperature; read-out: CDK4 IC50.
Sequence of human cyclin D1-CDK4 (P11802 whole entry): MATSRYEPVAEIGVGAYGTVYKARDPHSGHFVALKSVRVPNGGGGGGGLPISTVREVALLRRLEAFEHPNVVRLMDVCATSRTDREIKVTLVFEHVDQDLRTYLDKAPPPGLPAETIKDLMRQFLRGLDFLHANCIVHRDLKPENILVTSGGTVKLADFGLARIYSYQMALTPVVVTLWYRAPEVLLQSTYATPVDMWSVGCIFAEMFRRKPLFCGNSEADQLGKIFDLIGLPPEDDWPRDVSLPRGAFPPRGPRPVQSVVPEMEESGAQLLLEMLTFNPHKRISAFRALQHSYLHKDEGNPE
Sequence of human cyclin D1-CDK4 (P24385 whole entry partner): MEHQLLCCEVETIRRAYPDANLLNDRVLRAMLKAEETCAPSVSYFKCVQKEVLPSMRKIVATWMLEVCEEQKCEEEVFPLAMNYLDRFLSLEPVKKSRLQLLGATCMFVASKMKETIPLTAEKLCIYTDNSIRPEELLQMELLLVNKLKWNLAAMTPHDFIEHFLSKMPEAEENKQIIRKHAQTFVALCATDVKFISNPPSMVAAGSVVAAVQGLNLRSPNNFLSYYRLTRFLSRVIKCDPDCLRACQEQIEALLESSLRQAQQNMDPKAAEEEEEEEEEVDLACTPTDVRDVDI
Assay [3] deals with human cyclin B-CDK1 (Homo sapiens, UniProt P06493). The experiment in a line: FlashPlate kinase assay, cyclin B-CDK1. The format is biochemical. As to conditions: Rb protein substrate, 1 μM ATP, 33P-ATP, 30 minutes room temperature.
Sequence of human cyclin B-CDK1 (P06493 whole entry): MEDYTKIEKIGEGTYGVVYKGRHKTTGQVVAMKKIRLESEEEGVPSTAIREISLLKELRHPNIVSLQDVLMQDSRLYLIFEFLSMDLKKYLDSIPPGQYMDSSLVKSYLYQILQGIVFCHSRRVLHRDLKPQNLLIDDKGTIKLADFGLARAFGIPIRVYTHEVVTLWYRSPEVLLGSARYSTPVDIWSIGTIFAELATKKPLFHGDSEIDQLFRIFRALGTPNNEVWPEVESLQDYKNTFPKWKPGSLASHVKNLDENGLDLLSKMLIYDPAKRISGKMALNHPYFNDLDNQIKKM
Sequence of human cyclin B-CDK1 (P14635 whole entry partner): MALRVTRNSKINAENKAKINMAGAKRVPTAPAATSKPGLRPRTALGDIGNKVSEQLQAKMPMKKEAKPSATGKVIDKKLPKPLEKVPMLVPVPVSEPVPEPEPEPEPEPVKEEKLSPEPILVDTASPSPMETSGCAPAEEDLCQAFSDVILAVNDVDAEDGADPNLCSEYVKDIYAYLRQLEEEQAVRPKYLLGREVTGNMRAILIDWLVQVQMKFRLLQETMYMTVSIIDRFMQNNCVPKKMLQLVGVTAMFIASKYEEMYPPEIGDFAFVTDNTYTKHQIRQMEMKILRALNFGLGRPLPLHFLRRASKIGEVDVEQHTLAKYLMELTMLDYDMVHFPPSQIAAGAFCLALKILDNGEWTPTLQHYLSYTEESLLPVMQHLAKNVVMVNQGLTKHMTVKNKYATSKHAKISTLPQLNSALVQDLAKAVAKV
The target of assay [4] is human cyclin E-CDK2 (Homo sapiens, UniProt P24941). The assay is described as follows: FlashPlate kinase assay, cyclin E-CDK2. The format is biochemical. As to conditions: Rb protein substrate, 1 μM ATP, 33P-ATP, 30 minutes room temperature.

Consider `CCNC1CCN(c2ccc(Nc3nc(N)c(C(=O)c4ccc(OC)c(F)c4)s3)cc2)C1` (stereo not shown) [Example 133, {4-Amino-2-[4-(3-ethylamino-pyrrolidin-1-yl)-phenylamino]-thiazol-5-yl}-(3-fluoro-4-methoxy-phenyl)-methanone], for which the IC50 – broadly, the concentration needed to halve the response being measured – is 1020 nM in assay [1], 66 nM in assay [2], 1860 nM in assay [3] and 3270 nM in assay [4].

As to `CCNC1CCN(c2ccc(Nc3nc(N)c(C(=O)c4cccc(OC)c4)s3)cc2)C1` (stereo not shown) [Example 134, {4-Amino-2-[4-(3-ethylamino-pyrrolidin-1-yl)-phenylamino]-thiazol-5-yl}-(3-methoxy-phenyl)-methanone], the IC50 in assay [1] turned out to be 1240 nM; in assay [2], 46 nM; in assay [3], 1330 nM; in assay [4] it was 4500 nM.

As to `CCNC1CCN(c2ccc(Nc3nc(N)c(C(=O)c4cccc(OC)c4)s3)cc2)CC1` [Example 135, {4-Amino-2-[4-(4-ethylamino-piperidin-1-yl)-phenylamino]-thiazol-5-yl}-(3-methoxy-phenyl)-methanone], the IC50 in assay [1] amounted to 3370 nM; in assay [2], 28 nM; in assay [3] it was 1150 nM; in assay [4] it was 6100 nM.

For the molecule `CCNC1CCN(c2ccc(Nc3nc(N)c(C(=O)c4ccc(OC)c(F)c4)s3)cc2)CC1` [Example 136, {4-Amino-2-[4-(4-ethylamino-piperidin-1-yl)-phenylamino]-thiazol-5-yl}-(3-fluoro-4-methoxy-phenyl)-methanone], the IC50 in assay [1] worked out at 3260 nM; in assay [2] it was 50 nM; in assay [3], 1560 nM; in assay [4], 9430 nM.

The values are drawn from US7211576B2, “Diaminothiazoles” (Hoffmann-La Roche Inc., priority 2004, dated 2007).
